Test results from patent US20100249043A1, “COMPOSITIONS AND METHODS FOR PROMOTING HAIR GROWTH” (LA CANADA VENTRURES, INC., priority 2009, published 2010).

System: scalp hair
Experiment: scalp hair conditioner / scalp serum applied to dry scalp, monthly follow up with photographs
Type: in vivo
Conditions: applied to dry scalp after cleansing
From the text: The subjects were asked to apply the scalp serum with various concentrations of prostaglandin (dechloroethylcloprostenolamide from 0 wt % to 0.03 wt %), and a placebo is applied on the separate portion of the scalp. […] All the agents are applied directly to dry scalp after cleansing. Follow up are done monthly and photographs are taken.

Substance: dechloroethylcloprostenolamide [prostaglandin]
- time to response on scalp: 3 month
